# Measurements reported in patent US20070004652A1, “Treatment of occlusive thrombosis” (Mars, Incorporated, priority 2005, published 2007).
# “Also recorded” adds a separate entry of the source.
# Key:
# [1] = system: human endothelial cells; test: Genomic investigation (Affymetrix microarray, Taqman validation) of gene expression of human endothelial cells; assay type: cell-based; conditions: human endothelial cells in vitro and human plasma
# Text: We have employed a genomic approach to comprehensively investigate the effects of (−)-epicatechin (including a mixture of (−)-epicatechin metabolites), procyanidin dimer B1, and procyanidin dimer A2 on the gene expression of human endothelial cells in vitro. Following the completion of an extensive evaluation utilizing an Affymetrix Oligonucleotide Microarray Gene Expression Analysis System, we have subsequently validated our findings using Taqman® Gene Expression Assays, and confirmed the ensuing data by directly assessing amounts or activities of the target proteins in cultured human endothelial cells and human plasma, respectively.
# [2] = system: total PAI in HUVEC medium; test: Total PAI (free and tPA/uPA-bound) in HUVEC culture medium; assay type: cell-based, human; conditions: 24 h, 5 μM as compared to 1 μM, FIG. 3
# Description: (§1) HUVEC cultures were established as detailed above, by seeding HUVEC into fibronectin-coated 6 well plates at a seeding density of 5000 cells/cm^2. Cells were cultured without sub-culturing using standard cell culture conditions. 50% of the medium was replaced with fresh medium every 24 h. Following an incubation of the HUVECs with the TC at a concentration of 5 μM for 24 h, an aliquote of the media was collected and analyzed for its content of tPA, and PAI, respectively. The remaining medium was collected and the weight was recorded for subsequent activity calculations (for calculation purposes we assumed that 1 g of medium=1 mL). tPA and PAI release was measured as the activity of the respective proteins in the collected media using an ELISA-based assay [Innovative Research Inc., Southfield, Mich., USA] in accordance with the manufacturer's instructions.
# [3] = system: tPA mRNA expression in human umbilical vein endothelial cells (HUVEC); test: Taqman gene expression assay, tPA mRNA in HUVEC; assay type: cell-based; conditions: 5 μM, 0.5 to 24 hours, FIG. 1A
# Description: (§2) Human umbilical vein endothelial cells (HUVEC) were cultured in an endothelium-specific, 2% serum-containing, growth factor-supplemented, antibiotic-free culture medium. Cryo-preserved cells from a single, donor in passage 1 or 2 were directly seeded into fibronectin-coated 6 well plates at a seeding density of 5000 cells/cm^2 and cultured without sub-culturing using standard cell culture conditions. 50% of the medium was replaced with fresh medium every 24 h until confluence. Cells were treated with the B1 dimer at a final concentration of μ5 M for 0.5, 2, 4, and 24 hours, respectively, and mRNA was isolated with a Qiagen mRNA Isolations System. cDNA was synthesized from mRNA samples using a HPLC-purified T7 Oligo(dT) primer and SuperScript II reverse transcriptase enzyme (Invitrogen). The ensuing cDNA samples were purified using a Qiagen PCR purification system. The cDNA templates were added to standardized Taqmang® Gene Expression Assays (Applied Biosystems) reactions mixtures and a Real-Time PCR was performed using standardized thermo-cycling conditions. An absolute quantification method of analyzing gene expression levels was used on triplicate reactions of each sample, and amplification plots generated by the Applied Biosystems 7900HT Fast Real-Time PCR System were analyzed using ABI Prism SDS v2.1 software.
# [4] = system: PAI mRNA expression in human umbilical vein endothelial cells (HUVEC); test: Taqman gene expression assay, PAI mRNA in HUVEC; assay type: cell-based; conditions: 5 μM, 0.5 to 24 hours, FIG. 1C
# Description: as §2
# [5] = system: tPA release from HUVEC; test: tPA release from HUVEC, tPA activity in culture medium (ELISA-based assay); assay type: cell-based, human
# Description: as §1, with “Following an incubation of the HUVECs with the TC at a concentration of 5 μM for 24 h, an aliquote of the media was collected and analyzed for its content of tPA, and PAI, respectively.” left out
# [6] = system: plasma uPA; test: Plasma uPA activity after ingestion by human volunteers; assay type: in vivo; conditions: raw data
# Description: (§3) The test compound was administered to human volunteers in accordance with IRB-approved protocols and as detailed in the previous section of this report. The activity of tPA, uPA, and PAI in plasma was measured using an ELISA-based assay [Innovative Research Inc., Southfield, Mich., USA] in accordance with the manufacturer's instructions.
# [7] = system: uPA mRNA expression in human umbilical vein endothelial cells (HUVEC); test: Taqman gene expression assay, uPA mRNA in HUVEC; assay type: cell-based; conditions: 5 μM, 0.5 to 24 hours, FIG. 1B
# Description: as §2
# [8] = system: PAI release from HUVEC; test: PAI activity in HUVEC culture medium (ELISA-based assay); assay type: cell-based, human; conditions: 24 h, not quite statistically significant (P=0.061, One Way ANOVA)
# Description: as §1
# [9] = system: plasma tPA; test: Plasma tPA activity after ingestion by human volunteers; assay type: in vivo; conditions: for plasma tPA activity, time course: non-transformed (raw) data
# Description: as §3
# [10] = system: plasma tPAtotal; test: Plasma tPAtotal (free and bound tPA) after ingestion by human volunteers; assay type: in vivo; conditions: raw data, One Way ANOVA P=0.769
# Description: as §3
# In addition to measurements of plasma tPA activity, we determined the amount of tPAtotal in plasma (tPAtotal=free and bound tPA).
# [11] = Closure time after ingestion by human volunteers; assay type: in vivo; conditions: FIG. 4
# [12] = system: plasma PAI; test: Plasma PAI activity after ingestion by human volunteers; assay type: in vivo
# Description: as §3
SMILES,"expression, secreting or activity of various proteins related to cardiovascular function [1]",total PAI (free and tPA/uPA-bound) in medium [2],mRNA expression for tPA [3],expression of PAI mRNA [4],"increases in media-present tPA activity versus vehicle ([5]; 24 h, 5 μM and 10 μM, One Way ANOVA followed by Tukey Test)","tPA activity in the cell culture medium ([5]; 24 hours of incubation, different concentrations, FIG. 2)","plasma uPA activity, time-dependent change [6]",mRNA expression for uPA [7],activity of PAI in the media [8],increase in tPAmax (mean maximal increase in plasma tPA activity) ([9]; n=4) [%],mean tPAmax ([9]; n=4),"plasma tPA activity, time course ([9]; One Way ANOVA P=0.333)","plasma tPA activity, time course ([9]; One Way ANOVA P=0.333, listed as B1)","plasma tPAtotal levels, time-dependent change [10]",closure time as compared to vehicle (water) [11],"plasma PAI activity, time-dependent change ([12]; raw data)","PAI plasma activity, normalized to individual baselines ([12]; statistical significance at 4 h post-ingestion (P=0.011, t-test))"
"Oc1cc(O)c2c(c1)O[C@@]1(c3ccc(O)c(O)c3)Oc3cc(O)c4c(c3[C@@H]2[C@H]1O)O[C@H](c1ccc(O)c(O)c1)[C@H](O)C4 [A2 dimer, epicatechin-(4β→8; 2β→O→7)-epicatechin]",modulated,,,,,,,,,,,,,,,,
Oc1cc(O)c2c(c1)O[C@H](c1ccc(O)c(O)c1)[C@H](O)C2 [(−)-epicatechin],modulated,,,,,,,,,,,,,,,,
"Oc1cc(O)c2c(c1)O[C@H](c1ccc(O)c(O)c1)[C@H](O)[C@H]2c1c(O)cc(O)c2c1O[C@H](c1ccc(O)c(O)c1)[C@@H](O)C2 [B1 dimer, procyanidin dimer B1]",modulated,modulate; also recorded: increase in total PAI,time-dependent increases,decreases,significantly different from vehicle treatments,dose-dependent increase; also recorded: increase in tPA activity,"did not cause a statistically significant, time-dependant change",time-dependent increases,dose-dependant decrease,46,261.4+/−39.4 mU/mL,time-dependent increase,increases plasma tPA activity,neither the ingestion of the B1 dimer nor that of the vehicle caused a time-dependent change,augmentation of the closure time,"did not cause a statistically significant, time-dependant change",time-dependently decreased
